Source: patent US9834542B2, “LXR modulators” (BRISTOL-MYERS SQUIBB COMPANY, priority 2013, dated 2017)

Molecular target: T1, LXRβ (Homo sapiens, UniProt P55055)
T1 construct: Co-transfection expression plasmids, comprising full-length LXRα (pCMX-h LXRα[…] or LXRβ (pCMX-hLXRβ)); expressed in transfected cells; host or cells: CV-1 African Green Monkey Kidney Cells
T1 sequence (P55055 1-460): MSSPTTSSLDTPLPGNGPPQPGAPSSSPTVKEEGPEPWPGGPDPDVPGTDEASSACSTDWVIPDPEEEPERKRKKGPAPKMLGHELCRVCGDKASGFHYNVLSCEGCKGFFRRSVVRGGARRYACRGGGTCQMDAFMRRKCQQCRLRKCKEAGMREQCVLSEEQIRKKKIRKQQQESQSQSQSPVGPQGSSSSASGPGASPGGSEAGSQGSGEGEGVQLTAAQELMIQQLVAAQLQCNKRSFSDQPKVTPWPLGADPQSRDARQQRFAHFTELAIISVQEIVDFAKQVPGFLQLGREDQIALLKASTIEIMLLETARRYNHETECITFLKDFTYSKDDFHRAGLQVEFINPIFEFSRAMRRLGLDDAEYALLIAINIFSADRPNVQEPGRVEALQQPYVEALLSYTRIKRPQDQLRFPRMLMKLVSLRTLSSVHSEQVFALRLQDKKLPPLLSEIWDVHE
T1 sequence (P19793 1-462 partner): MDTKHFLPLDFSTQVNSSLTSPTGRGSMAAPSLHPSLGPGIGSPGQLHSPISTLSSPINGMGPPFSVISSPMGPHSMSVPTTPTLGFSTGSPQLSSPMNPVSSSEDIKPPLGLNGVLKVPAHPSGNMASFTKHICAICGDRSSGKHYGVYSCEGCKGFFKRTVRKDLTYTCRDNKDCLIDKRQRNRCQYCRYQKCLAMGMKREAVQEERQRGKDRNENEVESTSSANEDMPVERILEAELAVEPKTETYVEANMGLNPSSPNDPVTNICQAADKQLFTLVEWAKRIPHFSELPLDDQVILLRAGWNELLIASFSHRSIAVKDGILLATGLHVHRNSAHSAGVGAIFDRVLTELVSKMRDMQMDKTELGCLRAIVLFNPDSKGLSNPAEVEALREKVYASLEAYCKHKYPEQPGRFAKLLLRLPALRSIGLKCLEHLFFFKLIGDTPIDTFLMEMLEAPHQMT
Experiment: Co-transfection assay (LXRE luciferase reporter), LXRβ
Format: cell-based
Conditions: for EC50: CV-1 cells transfected with pCMX-hLXRβ and LXREx1-Tk-Luciferase, 20 hours incubation; for Emax: LXRβ co-transfection, relative to high control 1-(2,4-difluorobenzyl)-2-oxo-6-(4-phenoxyphenyl)-4-(trifluoromethyl)-1,2-dihydropyridine-3-carbonitrile, read-out: % Efficacy
Procedure, shortened: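 CV-1 / pCMX-hLXRβ + LXREx1-Tk-Luc + β-gal; cpd 20 h, 37 °C, ≤0.5% DMSO; Steady-Glo luminescence. 11-pt ½-log curves, duplicate wells, sigmoidal fit → EC50; % efficacy vs high-control agonist, DMSO low control; mean of ≥2 expts.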

Compound	EC50 [nM]	Emax [%]
Cc1nc(C(C)(F)F)cn1-c1ccc(-c2cccc(S(C)(=O)=O)c2)cc1-n1nncc1-c1ccc(Cl)cc1Cl [Example 180, 5-(2,4-dichlorophenyl)-1-{4-[4-(1,1-difluoroethyl)-2-methyl-1H-imidazol-1-yl]-3′-(methylsulfonyl)biphenyl-3-yl}-1H-1,2,3-triazole]	606	48
Cc1nc(Cl)cn1-c1ccc(-c2cc(F)c(CO)c(S(C)(=O)=O)c2)cc1-n1nncc1-c1ccc(OC(F)(F)F)cc1 [Example 147, [4′-(4-chloro-2-methyl-1H-imidazol-1-yl)-3-fluoro-5-(methylsulfonyl)-3′-(5-{4-[(trifluoromethyl)oxy]phenyl}-1H-1,2,3-triazol-1-yl)biphenyl-4-yl]methanol]	413	76
Cc1nc(C(F)(F)F)cn1-c1ccc(-c2cccc(S(C)(=O)=O)c2)cc1-n1nncc1-c1cc(F)c(F)c(F)c1 [Example 71, 1-{3′-(methylsulfonyl)-4-[2-methyl-4-(trifluoromethyl)-1H-imidazol-1-yl]biphenyl-3-yl}-5-(3,4,5-trifluorophenyl)-1H-1,2,3-triazole]	400	105
Cc1nc(-c2cc(-c3cc(F)c(CO)c(S(C)(=O)=O)c3)ccc2-n2cc(C(F)(F)F)nc2C)c(-c2ccc(OCC3CC3)c(F)c2)o1 [Example 405, (3′-(5-(4-(cyclopropylmethoxy)-3-fluorophenyl)-2-methyloxazol-4-yl)-3-fluoro-4′-(2-methyl-4-(trifluoromethyl)-1H-imidazol-1-yl)-5-(methylsulfonyl)biphenyl-4-yl)methanol]	68	59
CCc1nc(-c2cc(-c3cccc(S(C)(=O)=O)c3)ccc2-n2cc(C(F)(F)F)nc2C)c(-c2ccc3c(c2)OC(F)(F)O3)o1 [Example 478, 5-(2,2-difluorobenzo[d][1,3]dioxol-5-yl)-2-ethyl-4-(4-(2-methyl-4-(trifluoromethyl)-1H-imidazol-1-yl)-3′-(methylsulfonyl)biphenyl-3-yl)oxazole]	32	89
Cc1ccc(-c2cnnn2-c2cc(-c3cc(Cl)c(CO)c(S(C)(=O)=O)c3)ccc2-n2cc(C(F)(F)F)nc2C)cc1 [Example 63, {3-chloro-3′-[5-(4-methylphenyl)-1H-1,2,3-triazol-1-yl]-5-(methyllsulfonyl)-4′-[2-methyl-4-(trifluoromethyl)-1H-imidazol-1-yl]biphenyl-4-yl}methanol]	281	68
Cc1nc(C(F)(F)F)cn1-c1ccc(-c2cc(F)c(CO)c(S(C)(=O)=O)c2)cc1-c1ncoc1-c1ccc(Cl)cc1 [Example 365, {3′-[5-(4-chlorophenyl)-1,3-oxazol-4-yl]-3-fluoro-5-(methylsulfonyl)-4′-[2-methyl-4-(trifluoromethyl)-1H-imidazol-1-yl]biphenyl-4-yl}methanol]	307	81
Cc1nc(C(F)(F)F)cn1-c1ccc(-c2cccc(S(C)(=O)=O)c2)cc1-n1nncc1-c1ccc(C(C)C)cc1 [Example 72, 5-[4-(1-methylethyl)phenyl]-1-{3′-(methylsulfonyl)-4-[2-methyl-4-(trifluoromethyl)-1H-imidazol-1-yl]biphenyl-3-yl}-1H-1,2,3-triazole]	473	80
Cc1nc(C(F)(F)F)cn1-c1ccc(-c2cccc(S(C)(=O)=O)c2)cc1-n1nncc1-c1ccc(OC(F)(F)F)c(F)c1 [Example 54, 5-{3-fluoro-4-[(trifluoromethyl)oxy]phenyl)-1-{3′-(methylsulfonyl)-4-[2-methyl-4-(trifluoromethyl)-1H-imidazol-1-yl]biphenyl-3-yl}-1H-1,2,3-triazole]	148	84
Cc1nc(-c2cc(-c3cc(F)c(CO)c(S(C)(=O)=O)c3)ccc2-n2cc(C(F)(F)F)nc2C)c(-c2cc(Cl)cc(Cl)c2)o1 [Example 456, (3′-(5-(3,5-dichlorophenyl)-2-methyloxazol-4-yl)-3-fluoro-4′-(2-methyl-4-(trifluoromethyl)-1H-imidazol-1-yl)-5-(methylsulfonyl)biphenyl-4-yl)methanol]	57	45
CCS(=O)(=O)c1cccc(-c2ccc(-n3cc(C(F)F)nc3C)c(-n3nncc3-c3ccc(OC(F)(F)F)cc3)c2)c1 [Example 157, 1-{4-[4-(difluoromethyl)-2-methyl-1H-imidazol-1-yl]-3′-(ethylsulfonyl)biphenyl-3-yl}-5-{4-[(trifluoromethyl)oxy]phenyl}-1H-1,2,3-triazole]	1130	104
Cc1nc(-c2cc(-c3cc(F)c(CO)c(S(C)(=O)=O)c3)ccc2-n2cc(C(F)(F)F)nc2C)c(-c2ccc(OC(CF)CF)c(F)c2)o1 [Example 407, (3′-(5-(4-(1,3-difluoropropan-2-yloxy)-3-fluorophenyl)-2-methyloxazol-4-yl)-3-fluoro-4′-(2-methyl-4-(trifluoromethyl)-1H-imidazol-1-yl)-5-(methylsulfonyl)biphenyl-4-yl)methanol]	118	70
Cc1nc(C(F)(F)F)c(Cl)n1-c1ccc(-c2cc(F)c(CO)c(S(C)(=O)=O)c2)cc1-c1cnnn1-c1ccc(Cl)cc1 [Example 240, {4′-[5-chloro-2-methyl-4-(trifluoromethyl)-1H-imidazol-1-yl]-3′-[1-(4-chlorophenyl)-1H-1,2,3-triazol-5-yl]-3-fluoro-5-(methylsulfonyl)biphenyl-4-yl}methanol]	142	129
Cc1nc(C(F)(F)F)cn1-c1ccc(-c2cccc(S(C)(=O)=O)c2)cc1-n1nncc1-c1ccc(N2CCCC2)cc1 [Example 51, 1-{3′-(methylsulfonyl)-4-[2-methyl-4-(trifluoromethyl)-1H-imidazol-1-yl]biphenyl-3-yl}-5-(4-pyrrolidin-1-ylphenyl)-1H-1,2,3-triazole]	158	107
CS(=O)(=O)c1cc(-c2ccc(-n3cc(C(F)(F)F)nc3Cl)c(-n3nncc3-c3ccc(Cl)cc3Cl)c2)cc(F)c1CO [Example 145, {4′-[2-chloro-4-(trifluoromethyl)-1H-imidazol-1-yl]-3′-[5-(2,4-dichlorophenyl)-1H-1,2,3-triazol-1-yl]-3-fluoro-5-(methylsulfonyl)biphenyl-4-yl}methanol]	233	110
Cc1nc(C(F)(F)F)cn1-c1ccc(-c2ccc(CO)c(S(C)(=O)=O)c2)cc1-n1nncc1-c1ccc(OC(F)(F)F)cc1 [Example 90, [3-(methylsulfonyl)-4′-[2-methyl-4-(trifluoromethyl)-1H-imidazol-1-yl]-3′-(5-{4-[(trifluoromethyl)oxy]phenyl}-1H-1,2,3-triazol-1-yl)biphenyl-4-yl]methanol]	176	105
Cc1nc(C(F)F)c(C)n1-c1ccc(-c2cc(F)c(CO)c(S(C)(=O)=O)c2)cc1-n1nncc1-c1ccc(OC(F)(F)F)cc1 [Example 233, (4′-(4-(difluoromethyl)-2,5-dimethyl-1H-imidazol-1-yl)-3-fluoro-5-(methylsulfonyl)-3′-(5-(4-(trifluoromethoxy)phenyl)-1H-1,2,3-triazol-1-yl)-[1,1′-biphenyl]-4-yl)methanol]	1340	92
Cc1nc(-c2cc(-c3cccc(S(C)(=O)=O)c3)ccc2-n2cc(C(F)(F)F)nc2C)c(-c2ccc(F)c(C#N)c2)o1 [Example 506, 2-fluoro-5-(2-methyl-4-(4-(2-methyl-4-(trifluoromethyl)-1H-imidazol-1-yl)-3′-(methylsulfonyl)biphenyl-3-yl)oxazol-5-yl)benzonitrile]	349	77
Cc1nc(C(F)(F)F)cn1-c1ccc(-c2cc(F)c(CO)c(S(C)(=O)=O)c2)c(Cl)c1-n1nncc1-c1ccc(Cl)cc1 [Example 102, {2′-chloro-3′-[5-(4-chlorophenyl)-1H-1,2,3-triazol-1-yl]-3-fluoro-5-(methylsulfonyl)-4′-[2-methyl-4-(trifluoromethyl)-1H-imidazol-1-yl]biphenyl-4-yl}methanol]	1940	57
Cc1nc(-c2cc(-c3cc(F)c(CO)c(S(C)(=O)=O)c3)ccc2-n2cc(C(F)(F)F)nc2C)c(-c2ccc(F)cc2F)o1 [Example 454, (3′-(5-(2,4-difluorophenyl)-2-methyloxazol-4-yl)-3-fluoro-4′-(2-methyl-4-(trifluoromethyl)-1H-imidazol-1-yl)-5-(methylsulfonyl)biphenyl-4-yl)methanol]	37	38
